Patent publication US4500516A, “Antibacterial pharmaceutical composition” (priority 1982, dated 1985)
Structures can show the parent of a compound that is named as a salt. Where two headings read alike, the source gives them in different places.

Experiments:
[1] = cited from earlier work
[2] = cited from earlier work; remark: listed apart in the source
[3] = cited from earlier work; remark: listed apart in the source
[4] = test system: infectious inflammatory diseases; details: prior-art drugs; cited from earlier work
[5] = rabbit, in vivo, po, 5 mg/kg, cited from earlier work; for total quantity removed, of the total quantity administered: 2880 min
[6] = test system: pathogenic microorganisms; details: cited from earlier work
[7] = cited from earlier work; remark: listed apart in the source
[8] = prior-art drugs; cited from earlier work
in vivo [9] = details: rabbit, urine, 50 mg/kg
white mice = details: cited from earlier work
[10] = test system: Staphylococcus aureus haemolyticus; assay: bacteriostatic concentration; assay type: cell-based
Bac. mycoides = assay: microbe, parasite or virus in culture; assay type: cell-based; details: Bacillus mycoides, read-out: bacteriostatic concentration
Bac. coil = assay: bacteriostatic concentration; assay type: cell-based
[11] = rabbit, in vivo, 50 mg/kg
in vivo [12] = details: rabbit, blood

O=C1CN(N=CC=Cc2ccc([N+](=O)[O-])o2)C(=O)N1 [Furagin, N-[β-(5'-nitrofuryl-2')-acrylidene]-1-aminohydantoin]
solubility in water [1]: very poorly soluble in water
pK [2]: 6
intolerance ([3]; in vivo): in quite a number of cases, said pharmaceutical composition is observed to meet with intolerance
spectrum of action [4]: wider spectrum of therapeutic action than the aforesaid Nitrofurantoin and Furadantin
total quantity removed, of the total quantity administered [5]: 2.75±0.41%
concentrations in the urine, Furagin versus Solafur [5]: roughly equal

O=C1CN(N=Cc2ccc([N+](=O)[O-])o2)C(=O)N1 [Nitrofurantoin, 1-(5'-nitrofurfurylideneamino)-hydantoin]
bacteriostatic concentration value ([6]; in words): comparatively high
intolerance ([3]; medical practice): Sometimes this pharmaceutical composition is observed to meet with intolerance
removal from the organism ([7]; in vivo): quickly removed from the organism
absorption from the gastrointestinal tract ([7]; oral): quickly absorbable from the gastrointestinal tract
drug concentration in the blood and in the urine ([7]; oral): capable of reaching a level sufficient to produce a therapeutic effect
toxicity [8]: noticeably toxic
spectrum of action [4]: relatively limited spectrum of action
Cmax (in vivo [9]): 610 µg/mL
Tmax (in vivo [9]): 1 h
LD50 (white mice; white mice, oral administration): 166.7 mg/kg

O=C1CN(N=CC=Cc2ccc([N+](=O)[O-])o2)C(=O)N1 [Solafur, potassium salt of N-[β-(5'-nitrofuryl-2')-acrylidene]-1-aminohydantoin]
MIC [10]: 2.5 µg/mL
MIC (Bac. mycoides): 2.5 µg/mL
MIC (Bac. coil): 2.5 µg/mL
total excretion of Solafur with urine [11]: 3.43 ± 0.3 mg
synergistic action with antibiotics ([6]; a range of antibiotics, most pathogenic microorganisms): capability of producing synergistic action with a range of antibiotics upon most pathogenic microorganisms
solubility in water [1]: higher than that of the aforementioned Furagin
side effects on faster administration ([3]; in vivo, iv): headache and nausea
intolerance ([3]; in vivo): in some cases this pharmaceutical composition is observed to meet with intolerance
spectrum of action [4]: broader spectrum of action compared to Furagin
concentration at 0.25 h (in vivo [12]): 2.8 µg/mL
LD50 (white mice; mouse, in vivo, po): 390 mg/kg
total quantity removed, of the total quantity administered [5]: 2.83±0.48%
concentrations in the urine, Furagin versus Solafur [5]: roughly equal
